Experimental findings from PubChem BioAssay AID1996 are described below.

Values after ≈ are worked out from the molar mass of the structure shown.

For this series the following is noted: buffer; pH 7.4; 200.0 µM.
In general, solubility (kinetic) refers to solubility judged after dilution from a stock solution rather than from solid. With `Cc1cnc(C(=O)OCC(=O)NCc2cccc(Cl)c2)cn1`, the solubility (kinetic) was > 48 µg/mL.
On to `Cc1ccc2nc(SCC(=O)NC3CCS(=O)(=O)C3)[nH]c2c1` (centres undefined), for which the solubility (kinetic) was found to be 48.3 µg/mL (≈ 142 µM).
Turning to `CC(C)NC(=O)C(=O)Nc1cc2c3c(c1)CCC(=O)N3CCC2`, the solubility (kinetic) was > 47.3 µg/mL.
As to `O=C(CCl)Nc1ccc(S(=O)(=O)NC2=NCCCCC2)cc1`, the kinetic solubility was > 51.6 µg/mL.
`CC(OC(=O)C1CCCC1)C(=O)Nc1ncc(Cl)cc1Cl` (centres undefined): the solubility (kinetic) worked out at 49.1 µg/mL (≈ 148 µM).
For `CCOc1ccc(S(=O)(=O)n2cnc3ccccc32)cc1`, the solubility (kinetic) was 42.4 µg/mL (≈ 140 µM).
`Cc1ccnc(N2CCCC(C(=O)Nc3ccc(C)c(C)c3)C2)n1` (centres undefined) gave a solubility (kinetic) of 1.4 µg/mL (≈ 4.32 µM).
As for `CCOc1ccc(NC(=O)C(=O)NCc2ccncc2)cc1`, the solubility (kinetic) was found to be 12.5 µg/mL (≈ 41.8 µM).
As for `CC(=O)N(CCc1ccccc1)Cc1cc2ccc(C)c(C)c2[nH]c1=O`, the solubility (kinetic) was 17.4 µg/mL (≈ 49.9 µM).
With `CCn1c(CNC(=O)C2CCCCC2)cc2cc(C)ccc21`, the solubility (kinetic) is < 0.3 µg/mL.
`CN1CCN(c2oc(-c3ccccc3)nc2S(=O)(=O)c2ccccc2)CC1` came in with a solubility (kinetic) of 1.4 µg/mL (≈ 3.65 µM).
Consider `COc1ccc(-c2csc3ncn(Cc4ccccc4)c(=O)c23)cc1`, for which the kinetic solubility stood at 1.4 µg/mL (≈ 4.02 µM).
Take `O=C(Nc1cccs1)N1CCN(c2ncccn2)CC1`: the solubility (kinetic) is > 43.4 µg/mL.
For `OC1NC(=S)N(c2ccccc2)C1O` (centres undefined), the kinetic solubility was > 31.5 µg/mL.
For the molecule `COc1ccccc1CNC(=O)CN1C(=O)NC(Cc2ccccc2)(c2ccccc2)C1=O` (centres undefined), the kinetic solubility stood at 32.9 µg/mL (≈ 74.2 µM).
In the case of `O=C(NNC(=O)c1cccnc1)NC1CCCCC1`, the solubility (kinetic) was > 39.3 µg/mL.
In turn, `Cc1onc(-c2ccccc2Cl)c1C(=O)Nc1ccc(Cl)cn1` registered a kinetic solubility of 1 µg/mL (≈ 2.87 µM).
With `O=C(O)Cn1cc(CN2CCOCC2)c2ccccc21` the figure was 30 µg/mL (≈ 109 µM); with `Cc1ccccc1Cn1c(C)nc2ccc([N+](=O)[O-])cc2c1=O`, 6.9 µg/mL (≈ 22.3 µM); with `Cc1ccc(C(=O)N(CC(C)C)c2nc3ccccc3s2)o1`, 0.5 µg/mL (≈ 1.59 µM).
Molecule `COc1ccc(OC)c(/C=C/c2[nH]c(=O)[nH]c(=O)c2[N+](=O)[O-])c1` returned a solubility (kinetic) of 35.1 µg/mL (≈ 110 µM).
Regarding `CCN(CC)C(=O)N1c2ccccc2Sc2ccccc21`, the kinetic solubility was found to be 2.8 µg/mL (≈ 9.38 µM).
In the case of `CCN1CCN(C(=O)NC2CCCCC2)CC1.O=C(O)C(=O)O`, the kinetic solubility is > 49.4 µg/mL.
As to `CC1CCCCN1S(=O)(=O)c1cccc2nonc12` (centres undefined), the solubility (kinetic) stood at 39.6 µg/mL (≈ 141 µM).
`N#Cc1c(Cl)cccc1N1CCCC1`: the solubility (kinetic) is 2 µg/mL (≈ 9.68 µM).
As for `COc1cc2c(cc1OC)CN(c1ccc(F)cc1[N+](=O)[O-])CC2`, the kinetic solubility came out at 17.8 µg/mL (≈ 53.6 µM).
As for `CC(=O)Nc1ccc(S(=O)(=O)Nc2ccc(C)c([N+](=O)[O-])c2)cc1`, the solubility (kinetic) was > 52.4 µg/mL.
`COc1ccc(S(=O)(=O)N2CCC(N3CCCC3)CC2)cc1` displayed a solubility (kinetic) of 46.7 µg/mL (≈ 144 µM).
With `COC(=O)c1sccc1NC(=S)Nc1cccc(F)c1` the figure was 34.4 µg/mL (≈ 111 µM).
With `CC(C)(C)c1ccc(OCCCN2CCCC2)cc1` the figure was 28.6 µg/mL (≈ 109 µM); with `O=C(COC(=O)c1c(Cl)cccc1Cl)NC1CCCCC1`, > 49.5 µg/mL.
On to `O=C(/C=C/c1ccco1)N(Cc1ccccc1)C1CCS(=O)(=O)C1` (centres undefined), for which the solubility (kinetic) was 47.1 µg/mL (≈ 136 µM).
`CCCNC(=O)N1CCC(c2ccc3c(c2)OCO3)CC1` had a kinetic solubility of 38.8 µg/mL (≈ 134 µM).
Take `Cc1ccc(NC(=O)C(C)N2CCc3ccccc3C2)cc1` (centres undefined): the solubility (kinetic) worked out at 31.8 µg/mL (≈ 108 µM).
As for `COc1ccccc1C(=O)NCCC(=O)Nc1cccc(C)n1`, the kinetic solubility is > 47 µg/mL.
With `Cc1cccc(C)c1NC(=O)C(C)N1CCCC1` (centres undefined) the figure was > 37 µg/mL; with `COc1ccc(OCC(=O)Nc2ccc3c(c2)CCC3)cc1`, 19.3 µg/mL (≈ 64.9 µM).
Next, `O=C(NC1CCCCC1)C(=S)N1CCCC1`: > 36.1 µg/mL; `Cc1ccc2[nH]cc(CCNS(=O)(=O)c3ccc(F)cc3)c2c1`: 23 µg/mL (≈ 69.2 µM); `C=CCNc1nc(C(=O)OCC(=O)Nc2ccccc2C(F)(F)F)cs1`: 26.9 µg/mL (≈ 69.8 µM).
With `Cc1ccc(C(=O)O)cc1NC(=O)C1CCN(S(=O)(=O)c2ccc3c(c2)OCCO3)CC1`, the kinetic solubility is > 69.1 µg/mL.
Regarding `CC(=O)NC(Cc1c[nH]c2ccccc12)C(=O)NCCc1ccccc1` (centres undefined), the kinetic solubility is > 52.4 µg/mL.
Next, `CC1CN(c2ccc([N+](=O)[O-])cn2)CC(C)O1` (centres undefined): > 35.6 µg/mL; `Cc1ccc2oc(=O)n(CC(=O)N3CCOCC3)c2c1`: > 41.4 µg/mL; `COc1ccc(CN(C)C(=O)Cc2ccsc2)c(OC)c1OC`: 35.2 µg/mL (≈ 105 µM).
Take `Cc1ccc(NC(=S)NCC(O)c2ccccc2)c(C)c1` (centres undefined): the kinetic solubility is 44.3 µg/mL (≈ 147 µM).
Consider `CCCCCCCN=C(C)c1ccccc1O`, for which the kinetic solubility amounted to 13.9 µg/mL (≈ 59.6 µM).
For the molecule `COc1ccc(OC)c(C(=O)c2coc3ccc(O)c(CN(C)C)c23)c1.Cl`, the kinetic solubility was > 58.8 µg/mL.
Molecule `CCO.N#CC1=C(N)Oc2c(oc(CO)cc2=O)C1c1ccccc1[N+](=O)[O-]` (centres undefined) yielded a kinetic solubility of 45.9 µg/mL.
With `CN(C)C(=O)CCCCCCCCC(=O)N(C)C`, the kinetic solubility was > 38.5 µg/mL.
For the molecule `CCOC(=O)COc1nc2c(c(-c3ccco3)c1C#N)CCc1ccccc1-2`, the solubility (kinetic) was found to be 1.5 µg/mL (≈ 4.01 µM).
With `Cc1ccc(C(=O)N2CCN(c3ccccn3)CC2)cc1[N+](=O)[O-]` the figure was 44.8 µg/mL (≈ 137 µM); with `O=C(CNC(=O)c1ccccc1)NCCc1ccc(O)c(O)c1`, > 47.2 µg/mL; with `O=C(NCCc1ccc(Cl)cc1)C(=O)c1c[nH]c2ccccc12`, 2.1 µg/mL (≈ 6.43 µM).
Take `Cc1ccc(-c2nc(-c3ccncc3)no2)c(Cl)c1`: the solubility (kinetic) amounted to 0.5 µg/mL (≈ 1.84 µM).
Regarding `O=C(CN1C(=O)NC2(CCCCCC2)C1=O)N1CCCCC1`, the solubility (kinetic) was > 46.1 µg/mL.
For `C=C(C)c1cccc(C(C)(C)NC(=O)Nc2cccnc2)c1`, the solubility (kinetic) is 9.4 µg/mL (≈ 31.8 µM).
`COc1ccccc1N1CN(S(=O)(=O)c2ccc(C)cc2)c2nc3ccccc3nc21` returned a kinetic solubility of 1 µg/mL (≈ 2.31 µM).
For the molecule `Clc1ccc(CN2CCCCCC2)cc1.O=C(O)C(=O)O`, the solubility (kinetic) was 24.9 µg/mL.
Next, `Cc1c(C)c2ccc(OCC(=O)N3CCN(Cc4ccccc4)CC3)cc2oc1=O.Cl`: 2.5 µg/mL; `CC(C)(C)N1C(=O)c2ccc(C(=O)Nc3cc(C(=O)O)cc(C(=O)O)c3)cc2C1=O`: 51.5 µg/mL (≈ 125 µM).
Next, `CN(C)C(CNC(=O)c1ccc2ccccc2n1)c1ccccc1` (centres undefined): 27.5 µg/mL (≈ 86.1 µM); `Cl.OC12CC3C[C@H](C1)C(N1CCOCC1)[C@@H](C3)C2` (some centres undefined): 36.8 µg/mL.
For `C=CCNC(=O)C(=O)NCC1CCCN1CC` (centres undefined), the kinetic solubility is > 35.9 µg/mL.
Next, `CCc1ccc(NC2=NCCCS2)cc1`: > 33 µg/mL.
With `O=S(=O)(c1ccc(F)cc1)n1cnc2ccccc21` the figure was 28.4 µg/mL (≈ 103 µM); with `CCn1cnc2cc(NCc3ccc(Cl)cc3)ccc21`, 34 µg/mL (≈ 119 µM).
Next, `Cc1ccc2nc(-c3ccc(O)c(O)c3)cn2c1.Cl`: 22.7 µg/mL; `CC1CC(C)(C)NC(=S)N1CCCC(=O)Nc1ccccc1F` (centres undefined): > 50.6 µg/mL; `O=C(/C=C/c1cccs1)NCc1cccs1`: 32.3 µg/mL (≈ 130 µM).
Consider `Cc1c(C(=O)N2CCC(C)CC2)cccc1[N+](=O)[O-]`, for which the solubility (kinetic) is > 39.3 µg/mL.
The molecule `CN1CCC(NC(=O)c2ccncc2)CC1` had a kinetic solubility of 29.4 µg/mL (≈ 134 µM).
As to `CCCCN(C(=O)c1ccc2c(c1)OCO2)C1CCS(=O)(=O)C1` (centres undefined), the solubility (kinetic) is > 50.9 µg/mL.
In turn, `O=C(N/C(=C\c1ccccc1)C(=O)N1CCCCC1)c1ccco1` registered a solubility (kinetic) of 42.4 µg/mL (≈ 131 µM).
Take `Cc1ccc(OCC(=O)NCCCNC(=O)c2cccnc2)cc1`: the kinetic solubility is > 49.1 µg/mL.
As for `CC(C)(C)OC(=O)NC1CC2CCCC(C1)N2Cc1ccccc1` (centres undefined), the kinetic solubility is > 49.6 µg/mL.
With `Fc1ccccc1CSCc1nc2ccccc2[nH]1` the figure was 36.6 µg/mL (≈ 134 µM).
In turn, `O=[N+]([O-])c1ccc(C(O)CSC(=S)N2CCCCC2)cc1` (centres undefined) had a solubility (kinetic) of 2.6 µg/mL (≈ 7.96 µM).
With `O=C(CCc1c[nH]c2ccccc12)OCc1cccc([N+](=O)[O-])c1` the figure was < 0.3 µg/mL.
The molecule `CCCCn1c(N)c(N(CC)C(=O)c2ccccc2C)c(=O)[nH]c1=O` displayed a kinetic solubility of 49.5 µg/mL (≈ 144 µM).
`CCOc1cc(C2NC(=O)c3ccccc3O2)ccc1OC` (centres undefined): the solubility (kinetic) came to 8.6 µg/mL (≈ 28.7 µM).
Turning to `Nc1ccccc1C(=O)NC1CCCCNC1=O` (centres undefined), the kinetic solubility was > 37.1 µg/mL.
With `CCN(CC)CCOC(=O)c1ccc([N+](=O)[O-])cc1.Cl` the figure was > 45.4 µg/mL.
Next, `CCOc1ccc2oc(C(=O)NC(C)(C)CC)c(C)c2c1`: 11.5 µg/mL (≈ 39.7 µM); `N#CCCN1C(=O)C2(OCCO2)c2ccccc21`: > 36.6 µg/mL.
Regarding `COC(=O)c1ccc(S(=O)(=O)NCc2ccccc2)n1C`, the solubility (kinetic) is > 46.3 µg/mL.
As to `COc1cccc(Oc2ncnc(N)c2[N+](=O)[O-])c1`, the kinetic solubility is 31 µg/mL (≈ 118 µM).
`O=c1c2oc3ccccc3c2ncn1Cc1ccc(F)cc1` registered a kinetic solubility of 0.8 µg/mL (≈ 2.72 µM).
On to `Nc1ccc(CCn2ccnc2)cc1`, for which the solubility (kinetic) was > 28.1 µg/mL.
With `O=C(Nc1ccccc1)NC1CCCCNC1=O` (centres undefined), the solubility (kinetic) is > 37.1 µg/mL.
`CN(CC(=O)Nc1ccccc1)CC(=O)Nc1ccc(F)cc1`: the kinetic solubility was determined as 30.7 µg/mL (≈ 97.4 µM).
Take `COc1ccc(NC2SC(=O)N(C)C2=O)cc1` (centres undefined): the kinetic solubility was 37.6 µg/mL (≈ 149 µM).
Molecule `CN=C(C)/C(C(=O)OC)=C(/O)c1ccc(Cl)cc1Cl` showed a solubility (kinetic) of 34 µg/mL (≈ 113 µM).
In turn, `Cc1ccc(Nc2nc3ccccc3c(=O)[nH]2)cc1C` had a solubility (kinetic) of 0.4 µg/mL (≈ 1.51 µM).
For `CN/C(=C/[N+](=O)[O-])NCCSCc1ccc(CN(C)C)o1.Cl`, the solubility (kinetic) is 52.4 µg/mL.
Take `O=C(COC(=O)c1ccc2c(c1)OCCO2)NCCc1ccccc1`: the solubility (kinetic) came to 11.7 µg/mL (≈ 34.3 µM).
`NS(=O)(=O)c1ccc(NC2=CC(=O)C(=O)c3ccccc32)cc1` came in with a solubility (kinetic) of 13.6 µg/mL (≈ 41.4 µM).
`CC1CN(CC(=O)Nc2ccc(Br)cn2)CC(C)O1` (centres undefined): the kinetic solubility is > 49.2 µg/mL.
In turn, `CC(C)(C)C1CCC(C(=O)Nc2cccnc2)CC1` (centres undefined) gave a solubility (kinetic) of 6.3 µg/mL (≈ 24.2 µM).
The molecule `COc1ccc([C@@H]2Sc3ccccc3NC(=O)[C@@H]2O)cc1` had a kinetic solubility of 6.2 µg/mL (≈ 20.6 µM).
`Cc1cc(Cl)c2ccc(Cl)cc2n1`: the kinetic solubility was < 0.5 µg/mL.
As for `CC(C)N(CCc1ccncc1)C(=S)Nc1cccc(Cl)c1`, the kinetic solubility worked out at 43.2 µg/mL (≈ 129 µM).
The molecule `COc1cc(NC(=O)CCN2CCN(CCO)CC2)cc(OC)c1` showed a solubility (kinetic) of 44.5 µg/mL (≈ 132 µM).
Molecule `CCOC(=O)C1CCCN(Cc2ccc(-c3ccccc3)cc2)C1` (centres undefined) displayed a kinetic solubility of 11.9 µg/mL (≈ 36.8 µM).
